Values after ≈ are worked out from the molar mass of the structure shown.
Key:
physchem = details: 37 °C, aqueous buffer, kinetic from dmso stock
Description: (§5) Solubility was determined by nephelometry to assess its potential impact on the bioassays at active concentrations.
(§6) Then, said compounds were incubated for 2 hours at 37°C and read in a NEPHELOstar Plus (BMG LABTECH).

human platelets [1] = test: intracellular Ca+2 mobilization assay, CRP-activated washed platelets (FLIPR Calcium 4); format: cell-based; details: Platelet, calcium mobilization in human platelets, read-out: % Inhibition of CRP effect at 1µM, Mean
Description: An intracellular Ca^+2 mobilization assay was used to test the activity of the ligands in platelets. This assay measures the changes in calcium in real time by fluorophore dye Calcium 4, providing a useful way to characterize platelet activation by GPVI signaling [Barrachina et al. (2021)].
Washed platelets (5x10E6) were incubated with FLIPR Calcium 4 reagent (Molecular Devices LLC, San Jose, CA, USA) in a 384-well transparent bottom plate (Greiner Bio-One International GmbH, Kremsmünster, Austria) and supplemented with Probenecid (Invitrogen™, Carlsbad, CA, USA) 0.07% for 1 h at 37 °C. Platelets were co-incubated for 10 min with the tested compounds and inhibitors of secondary mediators (2 U/mL apyrase and 10 microM indomethacin (Sigma-Aldrich, Saint Louis, MO, USA)) under nonaggregating conditions (9 microM eptifibatide (Cayman Chemicals, Ann Arbor, MI, USA)). Then, the GPVI-specific agonist Collagen-Related Peptide (CRP) was added to the platelet suspension at different doses. Both potential GPVI inhibitors and CRP were automatically dispensed by FDSS7000EX Functional Drug Screening System (Hamamatsu Photonics, Hamamatsu, Japan). Intracellular Ca^2+ mobilization was assessed by measuring fluorescence changes ([…] wavelengths) in real time for 15 min after the addition of the agonist. 100% was expressed as maximal Ca^2+ release in platelets treated with the agonist CRP. To determine IC50, compounds were tested at 9 different concentrations in duplicates starting from 10 uM and performing 1:3 serial dilutions. The analysis of the data was performed with GraphPad Prism® software (version 6.0e, March 2014) (GraphPad Software, San Diego, CA, USA) by carrying out a nonlinear regression fit for log(inhibitor) vs. relative CRP activity using a Hill slope of -1, and top and bottom constraints of 100 and 0, respectively.

GPVI = molecular target: T1, GPVI (Homo sapiens, UniProt Q9HCN6); test: label-free biophysical binding assay based on dynamic mass redistribution (DMR), immobilized GPVI; details: for interaction with GPVI, Mean: DMR response; for interaction profile with GPVI (in words): concentration-response
T1 sequence (Q9HCN6 21-267 limits assumed): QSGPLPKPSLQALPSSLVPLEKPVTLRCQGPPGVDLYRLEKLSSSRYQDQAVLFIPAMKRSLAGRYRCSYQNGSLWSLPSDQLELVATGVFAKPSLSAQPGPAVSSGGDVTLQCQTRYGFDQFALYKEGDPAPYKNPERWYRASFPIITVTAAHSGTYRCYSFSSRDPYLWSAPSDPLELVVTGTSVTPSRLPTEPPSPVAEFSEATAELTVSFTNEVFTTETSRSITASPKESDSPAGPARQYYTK
Excerpt: A biophysical assay to test direct interaction with GPVI was developed by using a label-free methodology based on dynamic mass redistribution (DMR).
This protocol consists of immobilizing the target protein in a surface by chemical means and then measure the refractory index of a light directed to the bottom of the surface, which contains a sensor. It has been used previously for other targets to determine the potency of ligands such as peptides and molecules [Akhter et al., (2017) and Álvarez-Coiradas et al., (2020)].
Briefly, EnSpire LFB high sensitivity plates (PerkinElmer 6057460, USA) were activated with 400 mM EDC (N-(3-dimethylaminopropyl)-N'- ethylcarbodiimide hydrochloride) (Sigma Aldrich, UK) and 100 mM sulfo-NHS (sulfo-N-hydroxysulfosuccinimide) (Thermo Fisher, USA) diluted in ultrapure water for 30 min at room temperature. Microplates were subsequently washed with ultrapure water. GPVI protein was immobilized (25 µg/ml) in 20 mM sodium acetate buffer, pH 5.5. After an overnight incubation at 4 °C, the microplate was wa- shed with PBS with 0.005% Tween-20, pH 7.4 (assay buffer). Baseline was read after three hours on EnSpireTM 2300 Multilabel Plate Reader (PerkinElmer, Singapore). Compounds were added to the microplate, incubated for 1 h and the final read was performed in the EnSpireTM 2300 Multilabel Plate Reader. Recombinant CRP and assay buffer were employed as a positive and a negative control, respectively.
Compounds were assayed by means of concentration-response curves with concentrations between 100 µM and 0.4 µM (1:3 serial dilutions in triplicates), while CRP was assayed similarly starting with 7µg/ml top dose and a total of 6 concentrations (1:2 serial dilutions in triplicates). Response (pm) was obtained by subtracting the baseline measurement from the final read.

human platelets [2] = test: platelet spreading assay on CRP (phalloidin staining, confocal microscopy); format: cell-based; details: 10µM; CRP 1µg/mL; Figure 4
Description: Platelet spreading experiments were carried out to assess the potency of the compounds of formula (I), exemplified by compounds (If)and (Ih).
Platelets can change from a rounded, non-adherent form to adhere and flatten shape when exposed to ligands. This "spreading" effect can lead to the formation of cytoskeletal protein rearrangement. Platelet adhesion and extent of spreading (area covered) can be quantified.
Briefly, human platelets from healthy individuals were isolated and washed. Then, platelets were incubated with the inhibitors at 10µM for 5 min at room temperature and then for 45 min at 37°C in coverslips coated with 1µg/mL of agonist (CRP).
The images of platelet shape given by phalloidin staining were acquired by confocal fluorescence microscopy and the area analyzed by ImageJ [Onselaer et al., (2020)].

human platelets [3] = test: platelet aggregation assay, CRP-induced; format: cell-based; details: 10 µM; CRP 1 µg/mL; Figure 2
Description: Platelet aggregation assays were carried out to assess the potency of the active compounds as previously described [Barrachina et al. (2021)].
Briefly, human platelets from at least =7 healthy individuals were isolated and washed. Then, the suspension was incubated with the compounds at 10 µM at 37 ∘C for 4 min in a Chrono-log® 490-X aggregometer (Chrono-log Corporation, Havertown, PA, USA). After that, platelets were stimulated with the agonist CRP at 1 µg/mL for 5 min.

human platelets [4] = test: platelet aggregation selectivity assay (agonists collagen, rhodocytin, thrombin); format: cell-based; details: 10 µM
Description: In addition, an assessment of the selectivity of the active compound (Ic)at 10 µM was carried out based on aggregation assays. Briefly, human platelets from healthy individuals were isolated and washed. The agonists used in this selectivity assay were collagen, rhodocytin, and thrombin.

[5] = * from Dehring et al. (2004); cited from earlier work
[6] = solubility by nephelometry; details: 37 °C, aqueous buffer, kinetic from dmso stock
Description: as §5, §6

[7] = metabolic stability, rat microsomes; format: in vitro ADME
Description: (§1) Microsomes from Tebu-bio Xenotech were employed in the assay, having a content of 20 mg/ml of protein. The following quantities were added to each well of a 96-well microplate. Table 6: Metabolic stability assay.
(§2) Plates were incubated at 37°C and 75 µL samples were taken at 0, 10, 20, 40 and 60 minutes.
(§3) Samples were transferred to a microplate and 75 µl Acetonitrile + IS(Rolipram) were added for inactivating the microsomes, and 30 µl of H2O with 0.5% formic acid for improving the chromatographic conditions and kept at 4°C. When all the samples were taken the plate was centrifuged at […] for 30 min at 15°C. Stationary phase: ACQUITY BEH C18 1.7µm 2.1x50mm (Waters) Mobile phase: A: 0.1% formic; B: acetonitrile+0.1% formic acid Gradient: Table 6: UPLC gradient / Metabolic stability assay
(§4) Metabolic stability was calculated from the logarithm of the remaining compound at each of the times evaluated.

[8] = metabolic stability, mouse microsomes; format: in vitro ADME
Description: Samples were transferred to a microplate and 75 µl Acetonitrile + IS(Rolipram) were added for inactivating the microsomes, and 30 µl of H2O with 0.5% formic acid for improving the chromatographic conditions and kept at 4°C. When all the samples were taken the plate was centrifuged at 46000 g for 30 min at 15°C. Stationary phase: ACQUITY BEH C18 1.7µm 2.1x50mm (Waters) Mobile phase: A: 0.1% formic; B: acetonitrile+0.1% formic acid Gradient: Table 6: UPLC gradient / Metabolic stability assay

[9] = metabolic stability, dog microsomes; format: in vitro ADME
Description: as §1, §2, §3, §4

[10] = metabolic stability, human microsomes; format: in vitro ADME
Description: as §1, §2, §3, §4

O=C(Cc1ccc2c(c1)OCCO2)Nc1nc(-c2ccccc2)cs1 [Compound (Ia)]
solubility at 2 h (physchem; pbs with 1% dmso): 5.4 µM (≈ 1.9 µg/mL)
inhibition at 1 µM (human platelets [1]): 53.7%
interaction with GPVI, Mean (GPVI; Compound concentration (1µM)): 10.8 pm
interaction with GPVI, Mean (GPVI; Compound concentration (10µM)): 19.81 pm

O=C(Cc1ccc2c(c1)OCCO2)Nc1nc(-c2ccc(Cl)cc2)cs1 [Compound (Ib)]
platelet spreading on CRP (in words) (human platelets [2]): inhibition of platelet spreading on CRP
inhibition of platelet aggregation (in words) (human platelets [3]): consistent inhibition of platelet aggregation
solubility at 2 h (physchem; pbs with 1% dmso): 50 µM (≈ 19.3 µg/mL)
inhibition at 1 µM (human platelets [1]): 15.9%
interaction with GPVI, Mean (GPVI; Compound concentration (1µM)): 13.76 pm
interaction with GPVI, Mean (GPVI; Compound concentration (10µM)): 20.47 pm

O=C(Cc1ccc2c(c1)OCCO2)Nc1nc(-c2ccc(Br)cc2)cs1 [Compound (Ic)]
platelet aggregation, platelets exposed to collagen (in words) (human platelets [4]; agonist collagen): consistent inhibition of platelet aggregation
platelet aggregation induced by rhodocytin (in words) (human platelets [4]; agonist rhodocytin): unchanged
platelet aggregation induced by thrombin (in words) (human platelets [4]; agonist thrombin): unchanged
platelet spreading on CRP (in words) (human platelets [2]): inhibition of platelet spreading on CRP
inhibition of platelet aggregation (in words) (human platelets [3]): consistent inhibition of platelet aggregation
solubility at 2 h (physchem; pbs with 1% dmso): 51.9 µM (≈ 22.4 µg/mL)
inhibition at 1 µM (human platelets [1]): 34%
interaction with GPVI, Mean (GPVI; Compound concentration (1µM)): 12.37 pm
interaction with GPVI, Mean (GPVI; Compound concentration (10µM)): 25.42 pm

O=C(Cc1ccc2c(c1)OCCO2)Nc1nc(-c2ccc3c(c2)CCCC3)cs1 [Compound (Id)]
solubility at 2 h (physchem; pbs with 1% dmso): 21.9 µM (≈ 8.9 µg/mL)
inhibition at 1 µM (human platelets [1]): 36%
interaction with GPVI, Mean (GPVI; Compound concentration (1µM)): 17.38 pm
interaction with GPVI, Mean (GPVI; Compound concentration (10µM)): 28.66 pm

O=C(Cc1ccc2c(c1)OCCO2)Nc1nc(-c2ccc3ccccc3c2)cs1 [Compound (Ie)]
inhibition of platelet aggregation (in words) (human platelets [3]): consistent inhibition of platelet aggregation
solubility at 2 h (physchem; pbs with 1% dmso): 22.5 µM (≈ 9.06 µg/mL)
inhibition at 1 µM (human platelets [1]): 24.6%
interaction with GPVI, Mean (GPVI; Compound concentration (1µM)): 6.50 pm
interaction with GPVI, Mean (GPVI; Compound concentration (10µM)): 25.16 pm

C[C@H]1O[C@@H](O[C@H]2[C@@H](O)C[C@H](O[C@H]3[C@@H](O)C[C@H](O[C@H]4CC[C@@]5(C)[C@H](CC[C@@H]6[C@@H]5C[C@@H](O)[C@]5(C)[C@@H](C7=CC(=O)OC7)CC[C@]65O)C4)O[C@@H]3C)O[C@@H]2C)C[C@H](O)[C@@H]1O [Digoxin, reference compound]
Reported solubility [5]: 59.3* µM
solubility at 2 h [6]: 96.9 µM (≈ 75.7 µg/mL)

COc1cc2nc(N3CCN(C(=O)c4ccco4)CC3)nc(N)c2cc1OC [Prazosin, reference compound]
Reported solubility [5]: 26.3* µM
solubility at 2 h (physchem): 77.2 µM (≈ 29.6 µg/mL)

CC(=O)[C@H]1CC[C@H]2[C@@H]3CCC4=CC(=O)CC[C@]4(C)[C@H]3CC[C@]12C [Progesterone, reference compound]
Reported solubility [5]: 3.7* µM
solubility at 2 h (physchem): 5.1 µM (≈ 1.6 µg/mL)

Cc1ccc2nc(NC(=O)Cc3ccc4c(c3)OCCO4)sc2c1 [Ref. compound A, reference compound]
interaction with GPVI, Mean (GPVI; Compound concentration (1µM)): -9.78 pm
interaction with GPVI, Mean (GPVI; Compound concentration (10µM)): 1.91 pm
interaction profile with GPVI (in words) (GPVI; DMR): did not show a good interaction profile

O=C(Cc1ccc2c(c1)OCCO2)Nc1nc2c(Cl)cccc2s1 [Ref. compound B, reference compound]
interaction with GPVI, Mean (GPVI; Compound concentration (1µM)): 6.77 pm
interaction with GPVI, Mean (GPVI; Compound concentration (10µM)): -16.01 pm
interaction profile with GPVI (in words) (GPVI; DMR): did not show a good interaction profile

C[C@]12CC[C@H]3[C@@H](CCC4=CC(=O)CC[C@@]43C)[C@@H]1CC[C@@H]2O [Testosterone, reference compound]
% remanent (*) ([7]; Rat microsomes, (*) sampling time 60 min): 0.14%
half-life ([7]; rat, rat microsomes): 0.9 min
t1/2 [8]: 4.76 min
% remanent (*) ([8]; (*) sampling time 60 min): 0.06%
% remanent (*) ([9]; Dog microsomes, (*) sampling time 60 min): 49.1%
half-life ([9]; dog, dog microsomes): 59.9 min
microsomal CLint ([9]; dog, dog microsomes): 11.8 µL/min/mg
t1/2 [10]: 12.95 min
% remanent (*) ([10]; (*) sampling time 60 min): 4.02%

collagen related peptide [CRP]
interaction profile with GPVI (in words) (GPVI): robust dose-dependent response

— patent publication EP4420661B1, “SMALL MOLECULES TARGETING GLYCOPROTEIN VI AS ANTIPLATELET AGENTS FOR USE IN THE PREVENTION AND/OR TREATMENT OF THROMBOSIS AND ASSOCIATED PATHOLOGIES” (Universidade de Santiago de Compostela, priority 2023, dated 2024)
